{"source": "ChEMBL document CHEMBL4346657", "about": "“Anticancer activity, dual prooxidant/antioxidant effect and apoptosis induction profile of new bichalcophene-5-carboxamidines” (Eur J Med Chem, 2019)", "key": {"IGROV-1": {"test_system": "IGROV-1", "experiment": "Antiproliferative activity against human IGROV1 cells assessed as growth inhibition after 48 hrs by sulforhodamine B assay", "format": "functional", "settings": "IGROV-1, 48 h"}, "SK-MEL-28": {"test_system": "SK-MEL-28", "experiment": "Antiproliferative activity against human SK-MEL-28 cells assessed as growth inhibition after 48 hrs by sulforhodamine B assay", "format": "functional", "settings": "SK-MEL-28, 48 h"}, "HCT-116 [1]": {"test_system": "HCT-116", "experiment": "Induction of apoptosis in human HCT116 cells assessed as increase in caspase 9 mRNA expression at 100 nM after 6 hrs hrs by SYBR green dye-based qRT-PCR analysis relative to control", "format": "functional"}, "[2]": {"experiment": "Pro-oxidant activity assessed as increase in bleomycin-Fe2+ induced calf thymus DNA damage at 2 mM after 1 hr by thiobarbituric acid based absorbance analysis"}, "SK-MEL-5": {"test_system": "SK-MEL-5", "experiment": "Antiproliferative activity against human SK-MEL-5 cells assessed as growth inhibition after 48 hrs by sulforhodamine B assay", "format": "functional", "settings": "SK-MEL-5, 48 h"}, "SN12C": {"test_system": "SN12C", "experiment": "Antiproliferative activity against human SN12C cells assessed as growth inhibition after 48 hrs by sulforhodamine B assay", "format": "functional"}, "[3]": {"experiment": "Selectivity index, ratio of IC50 for human WI38 cells to GI50 for human NCI60 cells"}, "MCF7": {"test_system": "MCF7", "experiment": "Antiproliferative activity against human MCF7 cells assessed as growth inhibition after 48 hrs by sulforhodamine B assay", "format": "functional", "settings": "MCF7, 48 h"}, "HCT-116 [4]": {"test_system": "HCT-116", "experiment": "[…] in CDK1 mRNA expression in human HCT116 cells at 100 nM after 6 hrs hrs by SYBR green dye-based qRT-PCR analysis relative to control", "format": "functional"}, "SF-295": {"test_system": "SF-295", "experiment": "Antiproliferative activity against human SF295 cells assessed as growth inhibition after 48 hrs by sulforhodamine B assay", "format": "functional", "settings": "SF-295, 48 h"}, "[5]": {"experiment": "Antioxidant activity assessed as ABTS radical scavenging activity by spectrophotometric method relative to ascorbic acid", "format": "functional"}, "SNB-19": {"test_system": "SNB-19", "experiment": "Antiproliferative activity against human SNB19 cells assessed as growth inhibition after 48 hrs by sulforhodamine B assay", "format": "functional", "settings": "SNB-19, 48 h"}, "[6]": {"experiment": "Haemolytic activity in human erythrocytes assessed as induction of hemolysis at 10 mM after 30 mins relative to H202", "format": "cell-based, Erythrocyte", "settings": "read-out: Activity"}, "[7]": {"test_system": "Panel NCI-60 (60 carcinoma cell lines)", "experiment": "Antiproliferative activity against human NCI60 cells assessed as growth inhibition after 48 hrs by sulforhodamine B assay", "format": "functional"}, "SK-OV-3": {"test_system": "SK-OV-3", "experiment": "Antiproliferative activity against human SKOV3 cells assessed as growth inhibition after 48 hrs by sulforhodamine B assay", "format": "functional", "settings": "SK-OV-3, 48 h"}, "HCT-116 [8]": {"test_system": "HCT-116", "experiment": "Antiproliferative activity against human HCT116 cells assessed as growth inhibition after 48 hrs by sulforhodamine B assay", "format": "functional", "settings": "HCT-116, 48 h"}, "[9]": {"experiment": "Antioxidant activity assessed as ABTS radical scavenging activity by spectrophotometric analysis relative to control", "format": "functional", "set-up": "concentration or dose not given beside the values", "settings": "dose or concentration not given here"}, "COLO 205": {"test_system": "COLO 205", "experiment": "Antiproliferative activity against human COLO205 cells assessed as growth inhibition after 48 hrs by sulforhodamine B assay", "format": "functional", "settings": "COLO 205, 48 h"}, "CCRF-CEM": {"test_system": "CCRF-CEM", "experiment": "Antiproliferative activity against human CCRF-CEM cells assessed as growth inhibition after 48 hrs by sulforhodamine B assay", "format": "functional"}, "SW-620": {"test_system": "SW-620", "experiment": "Antiproliferative activity against human SW620 cells assessed as growth inhibition after 48 hrs by sulforhodamine B assay", "format": "functional", "settings": "SW-620, 48 h"}, "NCI-H322M": {"test_system": "NCI-H322M", "experiment": "Antiproliferative activity against human NCI-H322M cells assessed as growth inhibition after 48 hrs by sulforhodamine B assay", "format": "functional"}, "[10]": {"experiment": "Haemolytic activity in human erythrocytes assessed as induction of hemolysis at 5 mM after 30 mins relative to H202", "format": "cell-based, Erythrocyte", "settings": "read-out: Activity"}, "NCI-H460": {"test_system": "NCI-H460", "experiment": "Antiproliferative activity against human NCI-H460 cells assessed as growth inhibition after 48 hrs by sulforhodamine B assay", "format": "functional", "settings": "NCI-H460, 48 h"}, "MDA-MB-231": {"test_system": "MDA-MB-231", "experiment": "Antiproliferative activity against human MDA-MB-231/ATCC cells assessed as growth inhibition after 48 hrs by sulforhodamine B assay", "format": "functional", "settings": "MDA-MB-231, 48 h"}, "SF-268": {"test_system": "SF-268", "experiment": "Antiproliferative activity against human SF268 cells assessed as growth inhibition after 48 hrs by sulforhodamine B assay", "format": "functional", "settings": "SF-268, 48 h"}, "Malme-3M": {"test_system": "Malme-3M", "experiment": "Antiproliferative activity against human MALME-3M cells assessed as growth inhibition after 48 hrs by sulforhodamine B assay", "format": "functional"}, "HL-60(TB)": {"test_system": "HL-60(TB)", "experiment": "Antiproliferative activity against human HL-60(TB) cells assessed as growth inhibition after 48 hrs by sulforhodamine B assay", "format": "functional", "settings": "HL-60, 48 h"}, "NCI-H522": {"test_system": "NCI-H522", "experiment": "Antiproliferative activity against human NCI-H522 cells assessed as growth inhibition after 48 hrs by sulforhodamine B assay", "format": "functional", "settings": "NCI-H522, 48 h"}, "[11]": {"test_system": "Panel NCI-60 (60 carcinoma cell lines)", "experiment": "Antiproliferative activity against human NCI60 cells assessed as growth inhibition at 10 uM after 48 hrs by sulforhodamine B assay", "format": "functional", "settings": "read-out: GI"}, "OVCAR-5": {"test_system": "OVCAR-5", "experiment": "Antiproliferative activity against human OVCAR5 cells assessed as growth inhibition after 48 hrs by sulforhodamine B assay", "format": "functional", "settings": "OVCAR-5, 48 h"}, "EKVX": {"test_system": "EKVX", "experiment": "Antiproliferative activity against human EKVX cells assessed as growth inhibition after 48 hrs by sulforhodamine B assay", "format": "functional"}, "NCI-H226": {"test_system": "NCI-H226", "experiment": "Antiproliferative activity against human NCI-H226 cells assessed as growth inhibition after 48 hrs by sulforhodamine B assay", "format": "functional", "settings": "NCI-H226, 48 h"}, "RPMI-8226": {"test_system": "RPMI-8226", "experiment": "Antiproliferative activity against human RPMI8226 cells assessed as growth inhibition after 48 hrs by sulforhodamine B assay", "format": "functional", "settings": "RPMI-8226, 48 h"}, "UACC-62": {"test_system": "UACC-62", "experiment": "Antiproliferative activity against human UACC62 cells assessed as growth inhibition after 48 hrs by sulforhodamine B assay", "format": "functional", "settings": "UACC-62, 48 h"}, "HCT-116 [12]": {"test_system": "HCT-116", "experiment": "Induction of apoptosis in human HCT116 cells assessed as increase in p53 mRNA expression at 100 nM after 6 hrs hrs by SYBR green dye-based qRT-PCR analysis relative to control", "format": "functional"}, "786-0": {"test_system": "786-0", "experiment": "Antiproliferative activity against human 786-0 cells assessed as growth inhibition after 48 hrs by sulforhodamine B assay", "format": "functional", "settings": "786-0, 48 h"}, "M14": {"test_system": "M14", "experiment": "Antiproliferative activity against human M14 cells assessed as growth inhibition after 48 hrs by sulforhodamine B assay", "format": "functional", "settings": "M14, 48 h"}, "SK-MEL-2": {"test_system": "SK-MEL-2", "experiment": "Antiproliferative activity against human SK-MEL-2 cells assessed as growth inhibition after 48 hrs by sulforhodamine B assay", "format": "functional", "settings": "SK-MEL-2, 48 h"}, "[13]": {"experiment": "Antioxidant activity assessed as hydroxyl radical scavenging activity after 1 hr by salicylic acid-based Fenton reaction assay", "format": "functional"}, "DU-145": {"test_system": "DU-145", "experiment": "Antiproliferative activity against human DU145 cells assessed as growth inhibition after 48 hrs by sulforhodamine B assay", "format": "functional", "settings": "DU-145, 48 h"}, "MDA-MB-435": {"test_system": "MDA-MB-435", "experiment": "Antiproliferative activity against human MDA-MB-435 cells assessed as growth inhibition after 48 hrs by sulforhodamine B assay", "format": "functional", "settings": "MDA-MB-435, 48 h"}, "ACHN": {"test_system": "ACHN", "experiment": "Antiproliferative activity against human ACHN cells assessed as growth inhibition after 48 hrs by sulforhodamine B assay", "format": "functional"}}, "note": "Active and inactive are the calls of the source. No cut-off for these calls is given here."}
{"smiles": "N=C(N)c1ccc(-c2ccc(-c3cc(Cl)cc(Cl)c3)o2)o1", "values": [{"measurement": "GI50", "setting": "IGROV-1", "value": 1730, "unit": "nM"}, {"measurement": "GI50", "setting": "SK-MEL-28", "value": 1730, "unit": "nM"}, {"measurement": "fold change (FC)", "setting": "HCT-116 [1]", "value": 2.97}, {"measurement": "Activity", "setting": "[2]", "value": "Active"}, {"measurement": "GI50", "setting": "SK-MEL-5", "value": 1860, "unit": "nM"}, {"measurement": "GI50", "setting": "SN12C", "value": 1970, "unit": "nM"}, {"measurement": "Selectivity Index", "setting": "[3]", "value": 9.2}, {"measurement": "GI50", "setting": "MCF7", "value": 1350, "unit": "nM"}, {"measurement": "fold change (FC)", "setting": "HCT-116 [4]", "value": 0.54}, {"measurement": "GI50", "setting": "SF-295", "value": 1770, "unit": "nM"}, {"measurement": "fold change (FC)", "setting": "[5]", "value": 0.2}, {"measurement": "GI50", "setting": "SNB-19", "value": 1990, "unit": "nM"}, {"measurement": "hemolysis at 0.5 h, 10000 µM", "setting": "[6]", "value": 89.3, "unit": "%"}, {"measurement": "GI50", "setting": "[7]", "value": 1740, "unit": "nM"}, {"measurement": "LC50", "setting": "[7]", "value": 10700, "unit": "nM"}, {"measurement": "TGI", "setting": "[7]", "value": 3470, "unit": "nM"}, {"measurement": "GI50", "setting": "SK-OV-3", "value": 1800, "unit": "nM"}, {"measurement": "GI50", "setting": "HCT-116 [8]", "value": 1210, "unit": "nM"}, {"measurement": "inhibition", "setting": "[9]", "value": 19, "unit": "%"}, {"measurement": "GI50", "setting": "COLO 205", "value": 1310, "unit": "nM"}, {"measurement": "GI50", "setting": "CCRF-CEM", "value": 1870, "unit": "nM"}, {"measurement": "GI50", "setting": "SW-620", "value": 1680, "unit": "nM"}, {"measurement": "GI50", "setting": "NCI-H322M", "value": 1620, "unit": "nM"}, {"measurement": "hemolysis at 0.5 h, 5000 µM", "setting": "[10]", "value": 57.1, "unit": "%"}, {"measurement": "GI50", "setting": "NCI-H460", "value": 1900, "unit": "nM"}, {"measurement": "GI50", "setting": "MDA-MB-231", "value": 1850, "unit": "nM"}, {"measurement": "GI50", "setting": "SF-268", "value": 1770, "unit": "nM"}, {"measurement": "GI50", "setting": "Malme-3M", "value": 1840, "unit": "nM"}, {"measurement": "GI50", "setting": "HL-60(TB)", "value": 1620, "unit": "nM"}, {"measurement": "GI50", "setting": "NCI-H522", "value": 1730, "unit": "nM"}, {"measurement": "inhibition of growth at 10 µM", "setting": "[11]", "value": -57.8, "unit": "%"}, {"measurement": "GI50", "setting": "OVCAR-5", "value": 1810, "unit": "nM"}, {"measurement": "GI50", "setting": "EKVX", "value": 1640, "unit": "nM"}, {"measurement": "GI50", "setting": "NCI-H226", "value": 2200, "unit": "nM"}, {"measurement": "GI50", "setting": "RPMI-8226", "value": 2130, "unit": "nM"}, {"measurement": "GI50", "setting": "UACC-62", "value": 1940, "unit": "nM"}, {"measurement": "fold change (FC)", "setting": "HCT-116 [12]", "value": 1.99}, {"measurement": "GI50", "setting": "786-0", "value": 1780, "unit": "nM"}, {"measurement": "GI50", "setting": "M14", "value": 1860, "unit": "nM"}, {"measurement": "GI50", "setting": "SK-MEL-2", "value": 2020, "unit": "nM"}, {"measurement": "Activity", "setting": "[13]", "value": "Active"}, {"measurement": "GI50", "setting": "DU-145", "value": 1780, "unit": "nM"}, {"measurement": "GI50", "setting": "MDA-MB-435", "value": 1610, "unit": "nM"}, {"measurement": "GI50", "setting": "ACHN", "value": 1710, "unit": "nM"}]}
